Data taken from US8436039B2, “Inhibitors of the ATB(0,+) transporter and uses thereof” (Georgia Health Sciences University Research Institute, Inc., priority 2008, dated 2013).

Target: T1, human ATB^0,+ (Homo sapiens, UniProt Q9UN76)
T1 construct: The human ATB^0,+ cDNA was cloned from an MCF7 cell (a human mammary epithelial cancer cell line) cDNA library; expressed in transfected cells; host or cells: Xenopus laevis oocytes injected with 50 ng capped cRNA
T1 sequence (Q9UN76 1-642): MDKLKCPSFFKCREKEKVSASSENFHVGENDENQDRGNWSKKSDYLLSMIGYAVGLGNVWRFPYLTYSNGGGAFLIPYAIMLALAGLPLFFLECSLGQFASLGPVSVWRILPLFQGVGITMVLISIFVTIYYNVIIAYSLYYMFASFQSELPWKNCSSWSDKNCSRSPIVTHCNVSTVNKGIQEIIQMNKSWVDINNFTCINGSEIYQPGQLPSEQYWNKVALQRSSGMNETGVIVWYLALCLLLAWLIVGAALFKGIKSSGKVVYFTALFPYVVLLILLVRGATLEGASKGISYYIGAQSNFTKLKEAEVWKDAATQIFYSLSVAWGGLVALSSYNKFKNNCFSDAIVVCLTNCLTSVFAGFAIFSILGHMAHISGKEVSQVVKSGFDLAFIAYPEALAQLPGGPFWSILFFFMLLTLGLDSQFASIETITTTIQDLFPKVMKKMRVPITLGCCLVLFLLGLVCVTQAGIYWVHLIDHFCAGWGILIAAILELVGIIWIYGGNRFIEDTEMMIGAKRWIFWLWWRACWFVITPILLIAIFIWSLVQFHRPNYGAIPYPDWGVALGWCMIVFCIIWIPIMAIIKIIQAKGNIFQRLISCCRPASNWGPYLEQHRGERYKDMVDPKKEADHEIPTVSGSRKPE
Test: L-tryptophan-induced inward currents in X. laevis oocytes expressing human ATB^0,+
Assay type: cell-based
Settings: 1 mM added simultaneously with 20 μM L-tryptophan
Protocol: Capped cRNA from the cloned mouse or human ATB^0,+ cDNA was synthesized using the mMESSAGE mMACHTNE kit (Ambion, Austin, Tex., U.S.A.). Mature oocytes (stage IV or V) from X. laevis were injected with 50 ng of cRNA. Uninjected oocytes served as controls. The oocytes were used for electrophysiological studies 3-6 days after cRNA injection. Electrophysiological studies were performed by the two-microelectrode voltage-clamp method (Nakanishi et al., 2001, J. Physiol. 532, 297-304). Oocytes were superfused with an NaCl-containing buffer (100 mM NaCl, 2 mM KCl, 1 mM MgCl2, 1 mM CaCl2, 3 mM Hepes, 3 mM Mes and 3 mM Tris, pH 7.5), followed by the same buffer containing tryptophan derivatives. The membrane potential was clamped at −50 mV. The differences between the steady-state currents measured in the presence and absence of substrates were considered as the substrate-induced currents. In the analysis of the saturation kinetics of substrate-induced currents, the kinetic parameter K0.5 (i.e. substrate concentration necessary for induction of half-maximal current) was calculated by fitting the values of the substrate-induced currents to the Michaelis-Menten equation. The Na^+ and Cl^− activation kinetics of substrate-induced currents were analysed by measuring the substrate-specific currents in the presence of increasing concentrations of Na^+ (concentration of Cl^− kept constant at 100 mM) or in the presence of increasing concentrations of Cl^− (concentration of Na^+ kept constant at 100 mM). In these experiments, the composition of the superfusion buffer was modified to contain 2 mM potassium gluconate, 1 mM MgSO4 and 1 mM calcium gluconate in place of KCl, MgCl2 and CaCl2 respectively. The data from these experiments were analysed by the Hill equation to determine the Hill coefficient (h; number of Na^+ and Cl^− ions involved in the activation process). The kinetic parameters were determined by using the commercially available computer program Sigma Plot, version 6.0 (SPSS, Chicago, Ill., U.S.A.). […]

Structure (SMILES)	effect on inward currents induced by 20 μM L-tryptophan
Cn1cc(CC(N)C(=O)O)c2ccccc21 (racemic) [1-methyl-DL-tryptophan]	greater than that with 20 μM L-tryptophan alone
CC(N)(Cc1c[nH]c2ccccc12)C(=O)O (racemic) [α-methyl-DL-tryptophan]	blocked completely
